Results on 26 compounds are retold here after patent US10227357B2, “Compounds and methods for kinase modulation, and indications therefor” (Plexxikon Inc., priority 2012, dated 2019).

The target of one experiment is T1, c-kit kinase (Homo sapiens, UniProt P10721).
T1 construct: The c-kit (or kinase domain thereof) is an active kinase in AlphaScreen; poly-Histidine tag (in-house protein only) (cleaved yes); host or cells: E. coli BL21(DE3)RIL, co-expressed with PTP1B
The experiment is described as follows: c-Kit biochemical assay, AlphaScreen, 10 μM ATP. Particulars: c-kit biochemical inhibitory activity; read-out: Biochemical activity (IC50 μM) Kit. The method in brief: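 His-tagged c-Kit expressed in E. coli with co-expressed PTP1B (dephosphorylated), tag removed; 0.1 ng per reaction with biotinylated-peptide substrate in 50 mM HEPES pH 7.2, 5 mM MgCl2, 5 mM MnCl2, 5% DMSO, 10 μM ATP, 1 h at room temperature. Phosphorylation detected by AlphaScreen (streptavidin donor, PY20 acceptor beads); IC50 from 8-point 1:3 dilution series.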

For the next experiment, the target named is T2, c-kit mutant D816V (Homo sapiens, UniProt P10721, D816V/DEL694-753).
T2 construct: residues 551-934, kinase insertion domain residues 694-753 deleted; 6x-histidine (N); made in house; host or cells: E. coli Arctic Express (DE3) RIL (Stratagene)
The experiment is described as follows: c-Kit mutant D816V biochemical assay, AlphaScreen. Particulars: c-kit D816V biochemical inhibitory activity; read-out: Biochemical activity (IC50 μM) Kit D816V. The method, boiled down:
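Purified His-tagged c-Kit D816V (E. coli-expressed) assayed in 25 mM HEPES pH 7.2 with Mg/Mn, 5% DMSO and 10 μM ATP, 30 min at room temperature, 8-point 1:3 dilutions. Phosphorylation detected by AlphaScreen with streptavidin donor and PY20 acceptor beads; IC50 from signal versus concentration.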

T2 sequence (P10721 with tags, fused parts or gaps DEL694-753/D816V): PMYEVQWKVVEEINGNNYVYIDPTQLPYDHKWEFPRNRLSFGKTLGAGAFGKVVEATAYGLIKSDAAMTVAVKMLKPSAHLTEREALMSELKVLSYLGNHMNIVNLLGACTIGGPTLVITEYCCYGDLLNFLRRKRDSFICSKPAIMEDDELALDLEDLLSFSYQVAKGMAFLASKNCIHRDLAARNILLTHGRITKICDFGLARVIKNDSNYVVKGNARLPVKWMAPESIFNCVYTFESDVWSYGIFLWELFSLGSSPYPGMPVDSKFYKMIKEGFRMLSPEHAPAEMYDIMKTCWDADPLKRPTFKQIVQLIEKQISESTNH
T1 sequence (P10721 26-976): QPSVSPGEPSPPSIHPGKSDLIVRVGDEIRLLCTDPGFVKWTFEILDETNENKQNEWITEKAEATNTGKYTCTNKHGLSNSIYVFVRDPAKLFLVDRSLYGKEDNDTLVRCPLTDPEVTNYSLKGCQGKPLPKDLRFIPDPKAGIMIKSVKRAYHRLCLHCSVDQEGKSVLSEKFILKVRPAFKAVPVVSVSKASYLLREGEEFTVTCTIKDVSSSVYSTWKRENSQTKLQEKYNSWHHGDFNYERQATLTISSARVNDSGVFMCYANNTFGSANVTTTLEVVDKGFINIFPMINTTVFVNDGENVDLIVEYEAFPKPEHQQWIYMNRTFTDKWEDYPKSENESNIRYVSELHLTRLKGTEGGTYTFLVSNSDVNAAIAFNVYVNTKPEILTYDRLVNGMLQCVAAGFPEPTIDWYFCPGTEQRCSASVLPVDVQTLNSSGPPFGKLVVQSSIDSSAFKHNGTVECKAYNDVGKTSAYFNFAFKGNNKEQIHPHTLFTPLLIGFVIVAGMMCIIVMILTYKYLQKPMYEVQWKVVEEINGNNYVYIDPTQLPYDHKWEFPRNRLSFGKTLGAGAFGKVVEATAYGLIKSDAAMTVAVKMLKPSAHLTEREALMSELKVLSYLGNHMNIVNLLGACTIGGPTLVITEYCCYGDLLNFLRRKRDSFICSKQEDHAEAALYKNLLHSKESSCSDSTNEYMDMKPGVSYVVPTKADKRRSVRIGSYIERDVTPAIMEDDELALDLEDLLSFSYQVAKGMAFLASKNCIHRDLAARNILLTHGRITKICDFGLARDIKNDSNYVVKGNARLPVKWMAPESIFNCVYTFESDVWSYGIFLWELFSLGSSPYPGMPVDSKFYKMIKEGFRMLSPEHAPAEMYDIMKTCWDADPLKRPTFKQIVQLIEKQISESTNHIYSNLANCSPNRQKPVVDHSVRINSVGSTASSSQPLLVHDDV

As for `O=C(NCc1cccc(F)c1)NC1CCN(c2ncnc3[nH]ccc23)CC1` [P-0510, 1-[(3-fluorophenyl)methyl]-3-[1-(7H-pyrrolo[2,3-d]pyrimidin-4-yl)-4-piperidyl]urea], the concentration for half-maximal inhibition (IC50) at c-kit kinase and on c-kit mutant D816V was 10 to 200 µM each time.

As to `O=C(Nc1cccc(C(F)(F)F)c1)NC1CCN(c2ncnc3[nH]ccc23)CC1` [P-0515, 1-[1-(7H-pyrrolo[2,3-d]pyrimidin-4-yl)-4-piperidyl]-3-[3-(trifluoromethyl)phenyl]urea], the figures for the IC50 on c-kit kinase and on c-kit mutant D816V were 1 to 10 µM and 10 to 200 µM, respectively.

As to `CCc1ccc(S(=O)(=O)NC2CCN(c3ncnc4[nH]ccc34)CC2)cc1` [P-0525, 4-ethyl-N-[1-(7H-pyrrolo[2,3-d]pyrimidin-4-yl)-4-piperidyl]benzenesulfonamide], the IC50 at c-kit kinase and on c-kit mutant D816V was 10 to 200 µM each time.

On to `O=S(=O)(NC1CCN(c2ncnc3[nH]ccc23)CC1)c1cc(F)ccc1F` [P-0539, 2,5-difluoro-N-[1-(7H-pyrrolo[2,3-d]pyrimidin-4-yl)-4-piperidyl]benzenesulfonamide], for which the IC50 at c-kit kinase and at c-kit mutant D816V was 10 to 200 µM each time.

In the case of `COc1ccc(S(=O)(=O)NC2CCN(c3ncnc4[nH]ccc34)CC2)cc1` [P-0540, 4-methoxy-N-[1-(7H-pyrrolo[2,3-d]pyrimidin-4-yl)-4-piperidyl]benzenesulfonamide], the IC50 at c-kit kinase and on c-kit mutant D816V was 10 to 200 µM each time.

As for `NC1CCN(c2ncnc3[nH]ccc23)CC1` [P-0541, 1-(7H-pyrrolo[2,3-d]pyrimidin-4-yl)piperidin-4-amine], the IC50 at c-kit kinase is 10 to 200 µM; at c-kit mutant D816V it was 1 to 10 µM.

With `COc1ccc(NC(=O)NC2CCN(c3ncnc4[nH]ccc34)CC2)cc1` [P-0543, 1-(4-methoxyphenyl)-3-[1-(7H-pyrrolo[2,3-d]pyrimidin-4-yl)-4-piperidyl]urea], the IC50 at c-kit kinase and at c-kit mutant D816V was 10 to 200 µM in each case.

Turning to `C[C@H](NC(=O)N1CCN(c2ncnc3cc(C4=CCN(C(=O)C5CC5)CC4)sc23)CC1(C)C)c1cccc(Cl)c1` [P-0552, N-[(1S)-1-(3-chlorophenyl)ethyl]-4-[6-[1-(cyclopropanecarbonyl)-3,6-dihydro-2H-pyridin-4-yl]thieno[3,2-d]pyrimidin-4-yl]-2,2-dimethyl-piperazine-1-carboxamide], the IC50 at c-kit kinase and at c-kit mutant D816V was 0.0001 to 1 µM each time.

As for `C[C@H](NC(=O)N1CCN(c2ncnc3cc(C4=CCN(S(C)(=O)=O)CC4)sc23)CC1(C)C)c1cccc(Cl)c1` [P-0553, N-[(1S)-1-(3-chlorophenyl)ethyl]-2,2-dimethyl-4-[6-(1-methylsulfonyl-3,6-dihydro-2H-pyridin-4-yl)thieno[3,2-d]pyrimidin-4-yl]piperazine-1-carboxamide], the IC50 at c-kit kinase was in the range of 1 to 10 µM; at c-kit mutant D816V, 0.0001 to 1 µM.

As for `O=C(N1CC=C(c2cc3ncnc(-c4ccc(NS(=O)(=O)C5CC5)cc4)c3s2)CC1)N1CCOCC1` [P-0554, N-[4-[6-[1-(morpholine-4-carbonyl)-3,6-dihydro-2H-pyridin-4-yl]thieno[3,2-d]pyrimidin-4-yl]phenyl]cyclopropanesulfonamide], the IC50 at c-kit kinase and at c-kit mutant D816V was 0.0001 to 1 µM each time.

For `CS(=O)(=O)Nc1ccc(-c2ncnc3cc(C4=CCN(C(=O)N5CCOCC5)CC4)sc23)cc1` [P-0555, N-[4-[6-[1-(morpholine-4-carbonyl)-3,6-dihydro-2H-pyridin-4-yl]thieno[3,2-d]pyrimidin-4-yl]phenyl]methanesulfonamide], the IC50 on c-kit kinase and on c-kit mutant D816V was 0.0001 to 1 µM in each case.

On to `COc1cc(-c2cc3ncnc(N4CCN(C(=O)N[C@@H](C)c5cccc(Cl)c5)C(C)(C)C4)c3s2)ccn1` [P-0556, N-[(1S)-1-(3-chlorophenyl)ethyl]-4-[6-(2-methoxy-4-pyridyl)thieno[3,2-d]pyrimidin-4-yl]-2,2-dimethyl-piperazine-1-carboxamide], for which the IC50 at c-kit kinase was 1 to 10 µM; on c-kit mutant D816V, 0.0001 to 1 µM.

`Cc1nc(C)c(-c2cc3ncnc(N4CCN(C(=O)N[C@@H](C)c5cccc(Cl)c5)C(C)(C)C4)c3s2)s1` [P-0557, N-[(1S)-1-(3-chlorophenyl)ethyl]-4-[6-(2,4-dimethylthiazol-5-yl)thieno[3,2-d]pyrimidin-4-yl]-2,2-dimethyl-piperazine-1-carboxamide]: the IC50 on c-kit kinase lay in the range of 10 to 200 µM; on c-kit mutant D816V it was 0.0001 to 1 µM.

As for `C[C@H](NC(=O)N1CCN(c2ncnc3cc(N4CCOCC4)sc23)CC1(C)C)c1cccc(Cl)c1` [P-0558, N-[(1S)-1-(3-chlorophenyl)ethyl]-2,2-dimethyl-4-(6-morpholinothieno[3,2-d]pyrimidin-4-yl)piperazine-1-carboxamide], the IC50 on c-kit kinase fell in the range of 1 to 10 µM; on c-kit mutant D816V it was 0.0001 to 1 µM.

As for `CC(=N)Nc1ccc(-c2ncnc3cc(C4=CCN(C(=O)N5CCOCC5)CC4)sc23)cc1` [P-0559, N-[4-[6-[1-(morpholine-4-carbonyl)-3,6-dihydro-2H-pyridin-4-yl]thieno[3,2-d]pyrimidin-4-yl]phenyl]acetamidine], the IC50 at c-kit kinase is 10 to 200 µM; on c-kit mutant D816V, 0.0001 to 1 µM.

For the compound `COc1cccc([C@H](C)NC(=O)N2CCN(c3ncnc4cc(N5CCOCC5)sc34)CC2(C)C)c1` [P-0560, N-[(1S)-1-(3-methoxyphenyl)ethyl]-2,2-dimethyl-4-(6-morpholinothieno[3,2-d]pyrimidin-4-yl)piperazine-1-carboxamide], the values for the IC50 at c-kit kinase and on c-kit mutant D816V were 1 to 10 µM and 0.0001 to 1 µM, respectively.

In the case of `O=C(N1CC=C(c2cc3ncnc(-c4ccc(NS(=O)(=O)c5ccc(F)cc5)cc4)c3s2)CC1)N1CCOCC1` [P-0561, 4-fluoro-N-[4-[6-[1-(morpholine-4-carbonyl)-3,6-dihydro-2H-pyridin-4-yl]thieno[3,2-d]pyrimidin-4-yl]phenyl]benzenesulfonamide], the IC50 on c-kit kinase and at c-kit mutant D816V was 0.0001 to 1 µM each time.

On to `Cc1nn(C)cc1-c1cc2ncnc(N3CCN(C(=O)N[C@@H](C)c4cccc(Cl)c4)C(C)(C)C3)c2s1` [P-0564, N-[(1S)-1-(3-chlorophenyl)ethyl]-4-[6-(1,3-dimethylpyrazol-4-yl)thieno[3,2-d]pyrimidin-4-yl]-2,2-dimethyl-piperazine-1-carboxamide], for which the IC50 on c-kit kinase was 1 to 10 µM; on c-kit mutant D816V, 0.0001 to 1 µM.

As to `COc1cccc([C@H](C)NC(=O)N2CC3CCC2CN3c2ncnc3cc(-c4ccc(F)cc4)sc23)c1` (stereo partly drawn) [P-0566, 5-[6-(4-fluorophenyl)thieno[3,2-d]pyrimidin-4-yl]-N-[(1S)-1-(3-methoxyphenyl)ethyl]-2,5-diazabicyclo[2.2.2]octane-2-carboxamide], the IC50 at c-kit kinase was 10 to 200 µM; on c-kit mutant D816V, 1 to 10 µM.

For `COc1cccc([C@H](C)NC(=O)N2C3CCC2CN(c2ncnc4cc(-c5ccc(F)cc5)sc24)C3)c1` [P-0567, 3-[6-(4-fluorophenyl)thieno[3,2-d]pyrimidin-4-yl]-N-[(1S)-1-(3-methoxyphenyl)ethyl]-3,8-diazabicyclo[3.2.1]octane-8-carboxamide], the results for the IC50 at c-kit kinase and at c-kit mutant D816V were 10 to 200 µM and 0.0001 to 1 µM, respectively.

For the compound `CS(=O)(=O)N1CC=C(c2cc3ncnc(N4CCN(C(=O)NCc5ccc(F)cc5)CC4)c3s2)CC1` [P-0568, N-[(4-fluorophenyl)methyl]-4-[6-(1-methylsulfonyl-3,6-dihydro-2H-pyridin-4-yl)thieno[3,2-d]pyrimidin-4-yl]piperazine-1-carboxamide], the IC50 at c-kit kinase is 1 to 10 µM; at c-kit mutant D816V, 0.0001 to 1 µM.

`C[C@H](NC(=O)N1CCN(c2ncnc3cc(C4=CC(C)(C)NC(C)(C)C4)sc23)CC1)c1cccc(Cl)c1` [P-0569, N-[(1S)-1-(3-chlorophenyl)ethyl]-4-[6-(2,2,6,6-tetramethyl-1,3-dihydropyridin-4-yl)thieno[3,2-d]pyrimidin-4-yl]piperazine-1-carboxamide]: the IC50 was in the range of 10 to 200 µM on c-kit kinase and 0.0001 to 1 µM at c-kit mutant D816V.

With `O=C(C1CC1)N1CC=C(c2cc3ncnc(-c4ccc(NS(=O)(=O)c5ccc(F)cc5)cc4)c3s2)CC1` [P-0570, N-[4-[6-[1-(cyclopropanecarbonyl)-3,6-dihydro-2H-pyridin-4-yl]thieno[3,2-d]pyrimidin-4-yl]phenyl]-4-fluoro-benzenesulfonamide], the IC50 at c-kit kinase and on c-kit mutant D816V was 0.0001 to 1 µM throughout.

Take `O=C(C1CC1)N1CC=C(c2cc3ncnc(-c4ccc(NS(=O)(=O)C5CC5)cc4)c3s2)CC1` [P-0571, N-[4-[6-[1-(cyclopropanecarbonyl)-3,6-dihydro-2H-pyridin-4-yl]thieno[3,2-d]pyrimidin-4-yl]phenyl]cyclopropanesulfonamide]: the IC50 at c-kit kinase and on c-kit mutant D816V was 0.0001 to 1 µM in each case.

With `CS(=O)(=O)Nc1ccc(-c2ncnc3cc(C4=CCN(C(=O)C5CC5)CC4)sc23)cc1` [P-0572, N-[4-[6-[1-(cyclopropanecarbonyl)-3,6-dihydro-2H-pyridin-4-yl]thieno[3,2-d]pyrimidin-4-yl]phenyl]methanesulfonamide], the IC50 on c-kit kinase and at c-kit mutant D816V was 0.0001 to 1 µM throughout.

For the compound `C[C@H](NC(=O)N1CC=C(c2ncnc3cc(-c4ccc(F)cc4)sc23)CC1)c1cccc(OC(F)F)c1` [P-0573, N-[(1S)-1-[3-(difluoromethoxy)phenyl]ethyl]-4-[6-(4-fluorophenyl)thieno[3,2-d]pyrimidin-4-yl]-3,6-dihydro-2H-pyridine-1-carboxamide], the IC50 on c-kit kinase lay within 10 to 200 µM; on c-kit mutant D816V, 1 to 10 µM.
